Test results published in patent publication US6534524B1, “Indazole compounds and pharmaceutical compositions for inhibiting protein kinases, and methods for their use” (Agouron Pharmaceuticals, Inc., priority 1999, dated 2003).

Test system: human umbilical vein endothelial cells (HUVEC)
Assay: HUVEC proliferation assay (VEGF-stimulated, MTT)
Format: cell-based
Conditions: Library III; HUVEC proliferation; nominal concentration of 0.5 nM; crude reaction mixtures

Q: Which “% inhibition” value does the source give for O=C(Nc1cc(O)[nH]n1)c1ccccc1Sc1ccc2c(/C=C/c3ccccn3)n[nH]c2c1 here?
A: Its value is −17%.

Q: For COc1cccc(CCNC(=O)c2ccccc2Sc2ccc3c(/C=C/c4ccccn4)n[nH]c3c2)c1, which “% inhibition” value is on record?
A: The value was 8%.

Q: COc1cccc(CNC(=O)c2ccccc2Sc2ccc3c(/C=C/c4ccccn4)n[nH]c3c2)c1OC was tested. Which “% inhibition” value did it give?
A: The value was 10%.

Q: COc1ccc(CNC(=O)c2ccccc2Sc2ccc3c(/C=C/c4ccccn4)n[nH]c3c2)cc1OC was tested. Which “% inhibition” value did it give?
A: The value was 7%.

Q: CCOc1ccccc1CNC(=O)c1ccccc1Sc1ccc2c(/C=C/c3ccccn3)n[nH]c2c1 was tested. Which “% inhibition” value did it give?
A: Its value is −9%.

Q: Which “% inhibition” value does the source give for Nc1ccccc1CNC(=O)c1ccccc1Sc1ccc2c(/C=C/c3ccccn3)n[nH]c2c1 here?
A: Its value is 46%.

Q: Which “% inhibition” value does the source give for O=C(NCCc1ccccc1F)c1ccccc1Sc1ccc2c(/C=C/c3ccccn3)n[nH]c2c1 here?
A: The value was 2%.

Q: Which “% inhibition” value does the source give for O=C(NCc1cccs1)c1ccccc1Sc1ccc2c(/C=C/c3ccccn3)n[nH]c2c1 here?
A: The value was 23%.

Q: How did the “% inhibition” value turn out when Nc1cccc(F)c1CNC(=O)c1ccccc1Sc1ccc2c(/C=C/c3ccccn3)n[nH]c2c1 was run?
A: Its value is 11%.

Q: Which “% inhibition” value does the source give for COc1cccc(OC)c1CNC(=O)c1ccccc1Sc1ccc2c(/C=C/c3ccccn3)n[nH]c2c1 here?
A: Its value is −10%.

Q: With CC(=O)Nc1ccc(NC(=O)c2ccccc2Sc2ccc3c(/C=C/c4ccccn4)n[nH]c3c2)cc1 as the compound, how does the “% inhibition” value read?
A: The value was −4%.

Q: Which “% inhibition” value does the source give for O=C(NCc1ccccc1Cl)c1ccccc1Sc1ccc2c(/C=C/c3ccccn3)n[nH]c2c1 here?
A: Its value is 7%.

Q: Which “% inhibition” value does the source give for O=C(NCCc1ccccc1Cl)c1ccccc1Sc1ccc2c(/C=C/c3ccccn3)n[nH]c2c1 here?
A: The value was 9%.

Q: How did the “% inhibition” value turn out when COc1ccccc1CCNC(=O)c1ccccc1Sc1ccc2c(/C=C/c3ccccn3)n[nH]c2c1 was run?
A: Its value is 10%.

Q: O=C(Nc1ccc2[nH]c(=O)[nH]c2c1)c1ccccc1Sc1ccc2c(/C=C/c3ccccn3)n[nH]c2c1 was tested. Which “% inhibition” value did it give?
A: The value was 15%.

Q: With O=C(Nc1ccc(CO)cc1)c1ccccc1Sc1ccc2c(/C=C/c3ccccn3)n[nH]c2c1 as the compound, how does the “% inhibition” value read?
A: Its value is −18%.

Q: Which “% inhibition” value does the source give for O=C(NCCCCCO)c1ccccc1Sc1ccc2c(/C=C/c3ccccn3)n[nH]c2c1 here?
A: Its value is −2%.

Q: O=C(NCc1cccc2ccccc12)c1ccccc1Sc1ccc2c(/C=C/c3ccccn3)n[nH]c2c1 was tested. Which “% inhibition” value did it give?
A: Its value is 5%.

Q: Cc1cccc2sc(NC(=O)c3ccccc3Sc3ccc4c(/C=C/c5ccccn5)n[nH]c4c3)nc12 was tested. Which “% inhibition” value did it give?
A: Its value is −13%.

Q: With Cc1ccc2nc(NC(=O)c3ccccc3Sc3ccc4c(/C=C/c5ccccn5)n[nH]c4c3)sc2c1 as the compound, how does the “% inhibition” value read?
A: Its value is −9%.

Q: CC(=O)c1sc(NC(=O)c2ccccc2Sc2ccc3c(/C=C/c4ccccn4)n[nH]c3c2)nc1C was tested. Which “% inhibition” value did it give?
A: Its value is −2%.

Q: For CC(C)(C)c1csc(NC(=O)c2ccccc2Sc2ccc3c(/C=C/c4ccccn4)n[nH]c3c2)n1, which “% inhibition” value is on record?
A: Its value is −6%.

Q: CCSc1nnc(NC(=O)c2ccccc2Sc2ccc3c(/C=C/c4ccccn4)n[nH]c3c2)s1 was tested. Which “% inhibition” value did it give?
A: Its value is 17%.

Q: How did the “% inhibition” value turn out when Cc1cc(NC(=O)c2ccccc2Sc2ccc3c(/C=C/c4ccccn4)n[nH]c3c2)sn1 was run?
A: The value was 19%.

Q: Which “% inhibition” value does the source give for O=C(N[C@H]1CC[C@H](O)CC1)c1ccccc1Sc1ccc2c(/C=C/c3ccccn3)n[nH]c2c1 here?
A: The value was 18%.

Q: Which “% inhibition” value does the source give for CCOC(=O)N1CCC(NC(=O)c2ccccc2Sc2ccc3c(/C=C/c4ccccn4)n[nH]c3c2)CC1 here?
A: The value was −24%.

Q: With O=C(NCCc1ccc(Cl)cc1)c1ccccc1Sc1ccc2c(/C=C/c3ccccn3)n[nH]c2c1 as the compound, how does the “% inhibition” value read?
A: The value was 0%.

Q: O=C(NC1CCCCC1O)c1ccccc1Sc1ccc2c(/C=C/c3ccccn3)n[nH]c2c1 (stereo not shown) was tested. Which “% inhibition” value did it give?
A: The value was −6%.

Q: O=C(Nc1cc(O)nc(O)n1)c1ccccc1Sc1ccc2c(/C=C/c3ccccn3)n[nH]c2c1 was tested. Which “% inhibition” value did it give?
A: The value was 3%.

Q: Which “% inhibition” value does the source give for Cc1nnc(NC(=O)c2ccccc2Sc2ccc3c(/C=C/c4ccccn4)n[nH]c3c2)nc1C here?
A: The value was −20%.

Q: How did the “% inhibition” value turn out when CCOC(=O)CNC(=O)c1ccccc1Sc1ccc2c(/C=C/c3ccccn3)n[nH]c2c1 was run?
A: The value was −16%.

Q: With C#CC1(NC(=O)c2ccccc2Sc2ccc3c(/C=C/c4ccccn4)n[nH]c3c2)CCCCC1 as the compound, how does the “% inhibition” value read?
A: Its value is 3%.

Q: Which “% inhibition” value does the source give for Cc1cnc(CNC(=O)c2ccccc2Sc2ccc3c(/C=C/c4ccccn4)n[nH]c3c2)cn1 here?
A: Its value is 6%.

Q: For O=C(NCCc1c[nH]c2ccccc12)c1ccccc1Sc1ccc2c(/C=C/c3ccccn3)n[nH]c2c1, which “% inhibition” value is on record?
A: Its value is 18%.
